# Data from patent US12257274B2, “Fructophilic lactic acid producing bacteria” (priority 2019, dated 2025).
# Structures can show the parent of a compound that is named as a salt. Where two headings read alike, the source gives them in different places.
# Legend:
# [1] = test system: S. aureus ATCC 6538; assay: MIC of antibiotics by broth microdilution (CLSI), reference culture; format: cell-based
# Description: (§1) MIC was determined as per the guidelines of Clinical and Laboratory Standards Institute (CLSI 2012). Bacillus coagulans MTCC 25235 suspensions were prepared by suspending 18 h grown bacterial culture in sterile normal saline (0.89% NaCl wt/vol; Himedia, Mumbai India). The turbidity of the bacterial suspension was adjusted to 0.5 McFarland standards (equivalent to 1.5×10^8 colony forming units (CFU)/ml). The antibiotics stock solutions were prepared as per CLSI guidelines and 2-fold serial dilutions were prepared in broth medium (glucose yeast extract acetate broth [GYEA, HiMedia, Mumbai India for Bacillus coagulans MTCC 25235 and Mueller Hinton Broth [MHB, Difco Laboratories, Detroit, Mich USA] for S. aureus) in 100 μl volume in 96-well U bottom microtiter plates (BD Labware, NJ USA). The above-mentioned bacterial suspension was further diluted in the MHB and 100 μl volume of this diluted inoculum was added to each well of the plate resulting in the final inoculum of 5×10^5 CFU/ml in the well and the final concentration of antibiotics ranged from 0.0078 to 4 μg/ml. S. aureus ATCC 6538 was used as reference culture in this study. The plates were incubated at 37° C. for 24 h and were visually read for the absence or presence of turbidity. The minimum concentration of the compound concentration showing no turbidity was recorded as MIC.
# [2] = test system: Bacillus coagulans MTCC 25235; assay: MIC of antibiotics by broth microdilution (CLSI), antibiotic resistance pattern; format: cell-based
# Description: as §1
# [3] = against S. aureus ATCC 6538, MHB, 37° C., 24 h
# [4] = against Bacillus coagulans MTCC 25235, GYEA broth, 37° C., 24 h
# [5] = Staphylococcus aureus, ATCC6538, against S. aureus ATCC 6538, MHB, 37° C., 24 h, read-out: MIC
# [6] = Heyndrickxia coagulans, MTCC25235, against Bacillus coagulans MTCC 25235, GYEA broth, 37° C., 24 h, read-out: MIC
# [7] = Staphylococcus aureus, ATCC6538, 24 h
# [8] = Heyndrickxia coagulans, MTCC25235, 24 h
Compound,"MIC [1, 5]","MIC [2, 6]",other results
Gentamicin sulphate,,,"MIC [1, 3]: 0.25 µg/mL; MIC [2, 4]: 0.06 µg/mL"
O=C(N[C@H](CO)[C@H](O)c1ccc([N+](=O)[O-])cc1)C(Cl)Cl [Chloramphenicol],2 µg/mL,0.031 µg/mL,
[H]/N=C(/N)N[C@H]1[C@H](O)[C@@H](O)[C@H](O[C@@H]2O[C@@H](C)[C@](O)(C=O)[C@H]2O[C@@H]2O[C@@H](CO)[C@H](O)[C@@H](O)[C@@H]2NC)[C@@H](N/C(N)=N\[H])[C@@H]1O [Streptomycin sulphate],4 µg/mL,0.062 µg/mL,
CCC[C@@H]1C[C@@H](C(=O)N[C@@H]([C@H]2O[C@H](SC)[C@H](O)[C@@H](O)[C@H]2O)[C@H](C)Cl)N(C)C1 [Clindamycin hydrochloride],0.062 µg/mL,0.25 µg/mL,
Kanamycin sulphate,,,"MIC [1, 3]: 7.0 µg/mL; MIC [2, 4]: 0.062 µg/mL"
CN[C@H](CC(C)C)C(=O)N[C@H]1C(=O)N[C@@H](CC(N)=O)C(=O)N[C@H]2C(=O)N[C@H]3C(=O)N[C@H](C(=O)N[C@H](C(=O)O)c4cc(O)cc(O)c4-c4cc3ccc4O)[C@H](O)c3ccc(c(Cl)c3)Oc3cc2cc(c3O[C@@H]2O[C@H](CO)[C@@H](O)[C@H](O)[C@H]2O[C@H]2C[C@](C)(N)[C@H](O)[C@H](C)O2)Oc2ccc(cc2Cl)[C@H]1O [Vancomycin hydrochloride],,,"MIC [1, 7]: 0.5 µg/mL; MIC [2, 8]: 0.25 µg/mL"
CN(C)[C@@H]1C(O)=C(C(N)=O)C(=O)[C@@]2(O)C(O)=C3C(=O)c4c(O)cccc4[C@@](C)(O)[C@H]3C[C@@H]12 [Tetracycline hydrochloride],0.062 µg/mL,0.03 µg/mL,
CC[C@H]1OC(=O)[C@H](C)[C@@H](O[C@H]2C[C@@](C)(OC)[C@@H](O)[C@H](C)O2)[C@H](C)[C@@H](O[C@@H]2O[C@H](C)C[C@H](N(C)C)[C@H]2O)[C@](C)(O)C[C@@H](C)C(=O)[C@H](C)[C@@H](O)[C@]1(C)O [Erythromycin],,,"MIC [1, 7]: 0.125 µg/mL; MIC [2, 8]: 0.125 µg/mL"
CC1(C)S[C@@H]2[C@H](NC(=O)[C@H](N)c3ccccc3)C(=O)N2[C@H]1C(=O)O [Ampicillin sodium salt],0.031 µg/mL,0.125 µg/mL,
